Paper PMC12183826, “Structure-based design and evaluation of tyrosinase inhibitors targeting both human and mushroom isozymes” (RSC Medicinal Chemistry, 2025)
Like-named read-outs stand apart in the source and are kept apart here.

Assays:
[1] = molecular target: Agaricus bisporus tyrosinase (AbTYR); assay: AbTYR inhibition assay; assay type: biochemical
Excerpt: (§1) No. T3824). Kojic acid was employed as a positive standard. The intramelanosomal domain of hTYR was expressed and purified as previously reported in the literature.[46] The reference compound Thiamidol was purchased from BLDpharm (Shanghai, China).

human tyrosinase (hTYR) [2] = molecular target: T1, human tyrosinase (hTYR) (Homo sapiens, UniProt P14679); assay: hTYR inhibition assay; assay type: biochemical
T1 construct: The intramelanosomal domain of hTYR was expressed and purified; made in house
T1 sequence (P14679 19-476 limits assumed): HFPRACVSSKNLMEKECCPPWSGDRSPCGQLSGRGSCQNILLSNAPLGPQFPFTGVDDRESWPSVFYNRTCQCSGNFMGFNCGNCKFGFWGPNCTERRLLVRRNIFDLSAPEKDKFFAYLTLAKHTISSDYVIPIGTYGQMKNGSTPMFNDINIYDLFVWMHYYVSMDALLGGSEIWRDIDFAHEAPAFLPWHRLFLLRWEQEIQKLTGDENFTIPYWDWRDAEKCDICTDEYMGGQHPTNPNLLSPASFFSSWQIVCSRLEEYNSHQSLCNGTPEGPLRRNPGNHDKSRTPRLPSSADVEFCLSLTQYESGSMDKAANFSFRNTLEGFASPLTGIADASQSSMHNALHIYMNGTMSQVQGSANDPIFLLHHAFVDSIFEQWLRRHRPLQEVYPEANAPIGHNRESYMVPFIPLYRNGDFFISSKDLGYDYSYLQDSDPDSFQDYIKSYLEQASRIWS
Excerpt: as §1

[3] = ABTS radical scavenging assay; details: read-out: Antioxidant activity EC50 (ABTS)
Experimental: Therefore, we conducted a preliminary assessment of the antioxidant activity of all synthesized target compounds by evaluating their ABTS radical scavenging capacity. The ABTS assay is widely recognized as one of the most reliable methods for measuring antioxidants' ability to neutralize the stable ABTS˙^+ radical cation.
The overall free radical-scavenging capacity of the compounds was evaluated using the ABTS [2,20-azinobis-(3-ethylbenzothiazoline-6-sulfonic acid)] assay according to previously described methods.[45] The method relies on the capacity of antioxidants to scavenge the ABTS˙^+ radical. To generate ABTS˙^+, a 7 mM ABTS solution was mixed with 2.45 mM potassium persulfate in water, and the mixture was incubated in the dark at room temperature for 24 h. Subsequently, 10 μL of sample at varying concentrations was added to 990 μL of the diluted ABTS˙^+ solution. After 1 min of reaction at room temperature, the absorbance was recorded at 734 nm. The reference antioxidant used was 6-hydroxy-2,5,7,8-tetramethylchromane-2-carboxylic acid (Trolox). Antioxidant activity was quantified as EC50, which represents the concentration of compound needed to reduce the initial absorbance by 50%.

HaCaT cells = assay: Intracellular ROS levels (DCFH-DA), H2O2-induced; assay type: cell-based, human; details: 5–50 μM, 2 mM H2O2
Experimental: To further confirm their antioxidant capacity, we carried out an antioxidant assay in the skin keratinocyte cell line HaCaT. The levels of ROS were measured before and after exposure to H2O2-induced oxidative stress and after treatment with compounds 2 and 3 at various concentrations (5–50 μM).
Cellular ROS levels were measured using the 2′,7′-dichlorofluorescein diacetate (DCFH-DA) method.[48] HaCat cells were exposed to different concentrations of the test compounds, and after 24 h, cells were incubated with DCFH-DA (10 μM) at 37 °C for 30 min and then treated with 2 mM H2O2. The fluorescence intensity of DCF was immediately measured with a fluorescence plate reader (VANTAstar_BMGLABTECH GmbH, Offenburg, Germany).

MTT cell viability = assay type: cell-based; details: human, HaCaT keratinocyte cells
Experimental: Based on the inhibitory effects on hTYR and antioxidant properties on the ABTS assay, we focused our attention on compounds 2 and 3, which were further characterized as skin protective agents. In more detail, we evaluated their ability to influence the viability of human skin keratinocyte cell line HaCaT at distinct concentrations ranging from 5 to 50 μM (Fig. 6). […] Cell viability remained above 87% in compound 2 for all concentrations tested.
The 3-(4,5-dimethylthiazol-2-yl)-2,5-diphenyltetrazolium bromide (MTT) technique on human skin keratinocyte cell line (HaCaT; CLS-Cell Lines Service, Eppelheim, Germany) was employed to assess cell viability as reported by Pintus et al.[47] The cells were exposed to the compounds at concentrations ranging from […] for a duration of 24 h. Afterward, MTT reagent was added to each well, followed by incubation at 37 °C for 3 h. Following incubation, the MTT solution was removed from the culture plate, and 100 μL of DMSO solvent was added to dissolve the water-insoluble formazan crystals formed in the cells. The absorbance was then measured at 570 nm using a microplate reader (VANTAstar_BMG LABTECH GmbH, Offenburg, Germany).

[4] = Relative lipophilicity by RP-TLC; assay type: physicochemical; details: RP-TLC C18, acetone:water 2:1
Experimental: Based on the consideration that the lipophilicity of an active molecule exerts a relevant role in skin penetration as well as in the process of crossing the cell membrane, we chose to experimentally estimate the relative lipophilicity of the synthesized compounds 1–5. We employed reverse-phase thin layer chromatography (RP-TLC); the retardation coefficients (RFs) were measured from the chromatograms, thus generating the RM values as an estimation of the relative lipophilicity among the homogenous series of the studied compounds 1–5 in comparison with MehT-3. The Experimental procedure (4.3 Lipophilicity) contains a detailed description of the applied methods.
Experimental relative lipophilicity was determined by employing reversed phase TLC on 20 cm × 20 cm plates coated with C18 silica. The eluant was prepared by mixing acetone and water (2 : 1 (v/v)). The studied compounds and reference substances were dissolved in MeOH to obtain the working solution with a concentration of 2.0 mg mL^−1. Then, we activated the plates by heating at 105 °C for 1 h. From each working solution, a volume of 0.2 μL was spotted to the plates. The measurements were repeated three times with distinct disposition of the compounds on the plate, so that RF values represented the mean values obtained in triplicate. The chromatograms were developed at a distance of 10 cm from the origin in ascending TLC chambers at room temperature. Then, the spots of the substances were visualized by means of a UV lamp at 254 nm. Based on the retardation coefficients (RF) we calculated the relative lipophilicity RM values according to the formula RM = log[(1/RF) − 1];[44] higher RM values predict a higher lipophilicity.

[5] = system: Agaricus bisporus tyrosinase (AbTYR); design: method as in PMID 37657271, PMID 36093940; details: cited from earlier work
human tyrosinase (hTYR) [6] = molecular target: T1, human tyrosinase (hTYR); details: cited from earlier work
[7] = design: method as in PMID 36675192; details: positive control; read-out: Antioxidant activity EC50 (ABTS); cited from earlier work

Compound	IC50 [1] [µM]	IC50 (human tyrosinase (hTYR) [2]) [µM]	EC50 [3] [µM]	RM (relative lipophilicity) [4]	other results
O=C(O)c1ccccc1C(=O)N1CCN(c2ccc(O)cc2)CC1 [Compound 1, 2-[4-(4-hydroxyphenyl)piperazine-1-carbonyl]benzoic acid]	40.7 ± 3.19	15.4 ± 1.2	17.1 ± 0.7		
O=C(c1ccc(=O)[nH]c1)N1CCN(c2ccc(O)cc2)CC1 [Compound 2, 5-[4-(4-hydroxyphenyl)piperazine-1-carbonyl]pyridin-2(1H)-one]	13.2 ± 2.24	7.8 ± 0.8	9.5 ± 0.2	−0.60	H2O2-induced ROS production (HaCaT cells): decreased the production of ROS induced by hydrogen peroxide in a dose-dependent manner; viability at 24 h (MTT cell viability; all concentrations tested (5 to 50 μM)): > 87%
COc1ccccc1C(=O)N1CCN(c2ccc(O)cc2)CC1 [MehT-3, [4-(4-hydroxyphenyl)piperazin-1-yl](2-methoxyphenyl)methanone]				−0.17	Mode of inhibition of AbTYR (kinetic analyses) [5]: competitive inhibitor; IC50 ([5]; reference compound): 3.52 ± 0.25 µM; Mode of inhibition of hTYR (kinetic analyses) (human tyrosinase (hTYR) [6]): competitive inhibitor
Cc1c(C)c2c(c(C)c1O)CCC(C)(C(=O)O)O2 (centres unmarked) [Trolox, 6-hydroxy-2,5,7,8-tetramethylchromane-2-carboxylic acid]					EC50 [7]: 13 ± 1.1 µM

The next lines start with results.

IC50 [1] [µM]	IC50 (human tyrosinase (hTYR) [2]) [µM]	EC50 [3] [µM]	RM (relative lipophilicity) [4]	Compound	other results
31.8 ± 3.37	5.3 ± 0.9	14 ± 0.9		CC(=O)N1CCN(c2ccc(O)cc2)CC1 [Compound 3, 1-[4-(4-hydroxyphenyl)piperazin-1-yl]ethan-1-one]	H2O2-induced ROS production (HaCaT cells): decreased the production of ROS induced by hydrogen peroxide in a dose-dependent manner; viability at 24 h, 50 µM (MTT cell viability; 50 μM): 75%
8.74 ± 0.36	24.1 ± 3.3	10.8 ± 0.3		CCC(=O)N1CCN(c2ccc(O)cc2)CC1 [Compound 4, 1-[4-(4-hydroxyphenyl)piperazin-1-yl]propan-1-one]	
4 ± 0.25	27.2 ± 6.2	10.4 ± 0.1	−0.65	CC(=O)NCC(=O)N1CCN(c2ccc(O)cc2)CC1 [Compound 5, N-[2-[4-(4-hydroxyphenyl)piperazin-1-yl]-2-oxoethyl]acetamide]	
